What is called melting point is the temperature, or range, at which the solid turns liquid.

Compound `Cc1nn2c(-c3cccc(NC(=O)CC(C)C)c3)ccnc2c1C(=O)c1cccs1` returned a melting point of 137 to 139 °C.

Compound `CC(N(O)C(N)=O)C1(OCc2nc3ccccc3s2)C=CC(c2ccccc2)=CC1` (stereo unspecified) displayed a melting point of 190 to 191 °C. The same measure for `CCOC(=O)c1cc(=O)cc(-c2ccc(OC)cc2)o1`: 131 to 133 °C; for `COc1cc(C(=O)OC2CC3C(=O)NC4(C(=O)NS(=O)(=O)C5CC5)CC4C=CCCCCCC(NC(=O)OC(C)(C)C)C(=O)N3C2)n(OC)n1` (stereo unspecified): 149 to 151 °C.

In turn, `C=C[C@H]1CC(C(=O)O)=C[C@@H](OC(C)C)[C@@H]1NC(C)=O` displayed a melting point of 206 to 207 °C. Compound `COc1cc(C(C)=O)ccc1OCCN1C2CCC1CC(c1n[nH]c3cc(F)ccc13)C2` (stereo unspecified) showed a melting point of 151 to 152 °C. Turning to `O=C(O)c1ccc(CNCc2cc(Br)ccc2OCc2ccccc2)cc1`, the melting point stood at 209 °C. The same measure for `COC(=O)CCCc1cc2nc(Cl)ccc2n1S(=O)(=O)c1ccc(-c2ccccc2)cc1`: 122 to 124 °C; for `COC(=O)c1cc(C)nc(Nc2ccc(C(C)C)cc2Br)n1`: 75 to 76 °C. Then `CC(C)(C)C1=NN(c2ccc(C(=O)O)cc2)C(c2ccccc2F)C1` (stereo unspecified), with 225 °C. As for `CC=CCOc1ccc(C(=O)C=Cc2cccc(OC)c2)c(O)c1`, the melting point was 97 to 100 °C.

As for `CCOC(=O)C(=O)c1oc(-n2cnc3ccccc32)nc1-c1ccc(Cl)cc1`, the melting point lay within 143 to 144 °C.

The compound `COc1ccc2cnc(=O)[nH]c2c1C(C)C` came in with a melting point of 188 to 190 °C. Then `Cc1ccc(NS(=O)(=O)c2cc(S(=O)(=O)Nc3ccc(C)cc3C)c3cc(O)ccc3c2)c(C)c1`, with 116 to 118 °C; and `CC(C)N(C(=O)c1cccc2c1CCc1cc(F)ccc1S2)C(C)C`, with 149 to 150 °C. The same measure for `CCN1CCN(C/C=C/c2ccc3c(Nc4ccc(Sc5nccn5C)c(Cl)c4)c(C#N)cnc3c2)CC1`: 232 to 236 °C; for `CCCCCOc1ccc2cc(C(C)C(=O)O)ccc2c1` (stereo unspecified): 97 to 99 °C; for `CC(C)n1nc(-c2sc(N)nc2-c2ccc(F)cc2)ccc1=O`: 256 to 257 °C. The same measure for `O=C1CCC(N2Cc3c(OCc4ccc(CN5CCS(=O)CC5)cc4)cccc3C2=O)C(=O)N1` (stereo unspecified): 170 to 172 °C; for `O=C(CCc1ccccc1)OCCOC(=O)NC1(C(=O)O)CC1`: 133 to 134 °C; for `CCS(=O)(=O)C(F)(F)C(O)(Cn1cncn1)c1ccc(F)cc1F` (stereo unspecified): 117 to 118 °C. `COc1cccc(CNC(=O)c2nc3onc(C)c3c(=O)[nH]2)c1`: the melting point was in the range of 236 to 237 °C. The same measure for `CCc1nc2c(cnn2CC)c(NC2CCOCC2)c1CN(Cc1ccc(OC)c(-c2cccc(CN3CCN(C)CC3)c2)c1)C(=O)c1cccc(C(N)=O)c1`: 120 to 123 °C. For the compound `COC(=O)C1=C(C)NN=C(c2cccc(Cl)c2)C1c1cccc(Cl)c1` (stereo unspecified), the melting point was 204 °C. `C=Cc1c(C)c2cc3nc(c4c5[nH]c(cc6nc(cc1[nH]2)C(C)=C6CC)c(C)c5C(=O)C4)C(CCC(=O)OC)C3C` (stereo unspecified) came in with a melting point of 217 to 219 °C. `CCCOc1cccnc1C(O)c1ccc(N)cc1` (stereo unspecified) gave a melting point of 156 to 157 °C. The same measure for `COc1cc2ncnc(N3CCN(C(=O)Nc4ccc(N=Nc5ccccc5)cc4)CC3)c2cc1OC`: 244 to 246 °C. The same measure for `NC(Cc1c[nH]c2c(Cl)cccc12)C(=O)O` (stereo unspecified): 236 to 239 °C.

For `Fc1cccc(C2OC3(CCNCC3)N3CCCCC23)c1` (stereo unspecified), the melting point fell in the range of 133 to 135 °C. Then `CC(C)(C)OC(=O)c1ccc(OCCNC(=O)C2Cc3ccccc3N2S(=O)(=O)c2ccc(-c3ccc(F)cc3Cl)cc2)cc1` (stereo unspecified), with 78 °C. In turn, `CCN(CC)c1nsc(NC(=O)NC)c1C#N` came in with a melting point of 182 to 183 °C. The same measure for `O=C(O)CCCc1ncccc1NS(=O)(=O)c1ccccc1`: 156 to 157 °C. In the case of `O=c1cc(Cl)sn1-c1ccc(Cl)cc1`, the melting point was in the range of 117 to 119 °C. The same measure for `Cc1cc(C2CCN(C(=O)OC(C)(C)C)CC2)cnc1COc1ccc(S(C)(=O)=O)cc1`: 130 to 132 °C. Then `COc1ccc2c3c(c(=O)oc2c1)CNCC3`, with 171 to 180 °C; and `COc1cc(C(F)(F)F)nc2c(Cl)ccc(F)c12`, with 198 to 200 °C; and `CC(C)(c1ccc(C(C)(C)c2ccc3ccccc3c2O)cc1)c1ccc2ccccc2c1O`, with 245 to 255 °C. Then `CCOC(=O)c1cn2c3c(c(F)c(F)cc3c1=O)OCC2CI` (stereo unspecified), with 214 to 217 °C. The compound `COc1cc(Nc2c(C#N)cnc3cc(F)ccc23)c(Cl)cc1Cl` gave a melting point of 199 to 201 °C. Then `O=c1[nH]c2cnccc2c2nc(-c3ccccc3F)nn12`, with 285 to 287 °C; and `C=CCOc1ccc(C(O)CN2CCN(C(c3ccccc3)c3ccccc3)CC2)cc1` (stereo unspecified), with 100 °C; and `N#CCC(=O)NCCCNC(=O)CC#N`, with 146 °C.

`S=C(NCCc1ccccc1Cl)Nc1nc2ccccc2[nH]1` registered a melting point of 166 to 169 °C.

Compound `O=C(CCCCCCC(=O)c1ccc(O)cc1)c1ccc(O)cc1` displayed a melting point of 196 to 198 °C. Then `CC(=O)NCC1CC(c2cc(F)c(N3CCN(C(=O)CO)CC3)c(F)c2)=NO1` (single isomer, unassigned; (-)), with 220 to 221 °C; and `c1ccc(COc2cccc3c2NCC3)cc1`, with 58 to 60 °C. In turn, `CS(=O)(=O)Nc1cccc(NC(=O)C(=O)N2CCC(Cc3ccccc3)CC2)c1` came in with a melting point of 128 to 130 °C.

For the compound `c1cc(CN2CCc3cccc(CCc4nnn[nH]4)c32)cc(OCc2ccc3ccccc3n2)c1`, the melting point is 148 to 151 °C. Then `O=C(O)C(F)Oc1ccc(Cl)cc1Cl` (stereo unspecified), with 89 to 91 °C; and `CCOC(=O)C(=CNc1ccc(F)c(F)c1OCc1ccccc1)C(=O)OCC`, with 87 °C; and `Cc1nn(-c2ccc(F)cc2)cc1C(=O)N(C)c1ccc(OCC(C)(C)C)c(C#N)c1`, with 65 to 69 °C. As to `CCCCNc1c([N+](=O)[O-])cc(C)cc1[N+](=O)[O-]`, the melting point turned out to be 52 °C. The same measure for `N#Cc1cc(C(=O)NNC(=O)c2occ(-c3cccc(OCc4ccccc4)c3)c2-c2cccc(OCc3ccccc3)c2)ccc1O`: 171 to 174 °C; for `O=C(OCC1CC1)c1ncn2c1[C@@H]1CCCN1C(=O)c1cc(F)ccc1-2`: 140 to 142 °C. Then `O=c1c2ccccc2[nH]c(=S)n1CCCO`, with 174 to 176 °C. The same measure for `CN(C)CCCCCCCCCCOc1ccc(C(=O)c2ccccc2)cc1`: 33 to 35 °C; for `Cc1c(C=O)c2cnnc(NCc3ccccc3)c2n1Cc1ccccc1`: 171 to 172 °C; for `CC(C(=O)CCc1ccc(OC(F)(F)F)cc1)n1cncn1` (stereo unspecified): 58 °C.

Consider `CC(C)(C)COc1ccc(NC(=O)c2ccn(-c3ccc(F)cc3)c2)cc1C#N`, for which the melting point fell in the range of 167 to 169 °C. In turn, `CS(=O)(=O)OCCOc1ccccc1OCC(F)(F)F` displayed a melting point of 36 to 38 °C.

`O=C1NC(=O)C(CCOc2ccc(F)cc2)S1` (stereo unspecified) came in with a melting point of 94 to 96 °C.
